Data from patent publication US7387779B2, “Anti-angiogenic proteins and fragments and methods of use thereof” (Beth Israel Deaconess Medical Center, priority 1998, dated 2008).

How the values were obtained:
[1] = tested on: HUVEC cells; assay: Cell adhesion assay with integrin blocking antibodies; format: cell-based, human; conditions: label = plate coating; 10 μg/ml antibody
Description: (§1) The attachment of HUVECs to Tumstatin-coated plates in the presence of integrin subunits α1 through α6, β1, and αvβ3 integrin blocking antibody was examined. This assay was performed according to the method of Senger et al. (Senger, D. R. et al, 1997, Proc. Natl. Acad. Sci. USA 94:13612-7), with minor modification. 96-well plates were coated with either human Tumstatin, mouse laminin-1, or human Type IV collagen (Collaborative Biomedical Prods., Bedford, Mass., USA) at a concentration of 10 μg/ml overnight at 37° C. Vitronectin (Collaborative Biomed. Prods.) at a concentration of 0.5 μg/ml was then used to coat the plates. The remaining protein binding sites were blocked with 100 mg/ml of BSA (Sigma Chemical Co., St. Louis, Mo., USA) in PBS for 2 hours. HUVEC cells were grown to subconfluence (70-80%) in EGM-2 medium, gently trypsinized and resuspended in serum-free medium (1.5×10^5 cells/ml). The cells were mixed with 10 μg/ml of either mouse IgG, (control) (Life Technologies/Gibco BRL, Gaithersberg, Md., USA) or antibody (mouse monoclonal antibody to the human β1 integrin (clone P4C10) (Life Technologies/Gibco BRL); monoclonal antibody to human integrins α1 through α.6 (CHEMICON Int'l, Temecula, Calif., USA); αvβ3 integrin (clone LM609) (CHEMICON Int'l) and incubated for 15 minutes at room temperature, with gentle agitation. One hundred microliters of the cell suspension was then added to each well and incubated for 45 minutes at 37° C. Unattached cells were removed by washing, and the number of attached cells were counted after staining with methylene blue. C-PAE cells were used in separate experiments, following the above procedure.
(§2) Cell Attachment Activity: Cell attachment using endothelial cells was performed as described above. HUVEC or C-PAE cells were incubated with monoclonal anti-human integrin antibodies, control mouse IgG (10 μg/ml), or synthetic peptide, plated onto pre-coated 96-well plates, and the number of cells attaching to the plates was determined using measurement of methylene blue staining at OD655. […] CNGRC peptide was used as a control.
(§3) The cell attachment assay was performed as described above.

[2] = tested on: PC3 tumor xenografts; assay: PC3 human prostate tumor xenograft (Example 58); format: in vivo, nude NCRNU mice; conditions: 5.0 mg/kg i.p. daily, 3 weeks
Description: Male nude NCRNU mice, 5-6 weeks old, weighing approximately 25 grams, 6 were implanted with 2×10^6 PC3 cells into the dorsal subcutis. When the tumors were 60 mm^3, the animals were pair-matched into treatment and control groups. Each group contained 6-7 tumored mice, each of which was ear-tagged and followed individually throughout the experiment. Initial doses of peptide or vehicle control were given on the day of pair-matching (Day 0), and were administered via intraperitoneal (i.p.) injection at doses indicated. Mice were weighed weekly, and tumor measurements were taken by calipers weekly. These tumor measurements were converted to tumor volume by a well-known formula, (V=W^2×L/2), and mean tumor volumes were plotted against time. Mice were euthenized at the end of the treatment period. Upon termination, the mice were weighed, sacrificed and their tumors were excised. The mean tumor weight per group was calculated, and the value of mean treated tumor volume or volume ratio/mean control tumor volume or volume ratio×100 was subtracted from 100% to give the tumor growth inhibition (TG1) for each group. All groups received injections I.P. daily, except for two T8-treated groups, which were treated twice per week and once a week, respectively.

[3] = tested on: C-PAE cells; assay: Endothelial cell proliferation, methylene blue staining; format: cell-based, bovine; conditions: 10 μg/ml; 20% FCS
Description: A methylene blue staining test was also done. 3,100 cells were added to each well and treated as above, and cells were then counted using the method of Oliver et al. (Oliver, M. H. et al., 1989, J. Cell. Science 92:513-18). All wells were washed one time with […] of 1×PBS and the cells were fixed by adding […] of 10% formalin in neutral-buffered saline (Sigma Chemical Co., St. Louis, Mo., USA) for 30 minutes at room temperature. After formalin removal cells were stained with a solution of 1% methylene blue (Sigma Chemical Co.) in 0.01 M borate buffer (pH 8.5) for 30 minutes at room temperature. After removal of staining solution, the wells were washed 5 times with […] of 0.01 M borate buffer (pH 8.5). Methylene blue was extracted from the cells with […] of 0.1N HCi/ethanol (1:1 mixture) for 1 hour at room temperature. The amount of methylene blue staining was measured on a microplate reader (BioRad, Hercules, Calif., USA) using light absorbance at 655 nm wavelength.
In the methylene-blue staining method, 7000 cells were plated into each well of a 96-well plate, and treated as described above. Cells were then counted using the method of Oliver et al. (1989, J. Cell. Sci. 92:513-8). After 48 hours of treatment, all wells were washed with 100 μl of PBS, and the cells fixed with 10% formalin in neutral-buffered saline (Sigma Chemical Co., St. Louis, Mo., USA). The cells were then stained with 1% methylene blue (Sigma) in 0.01M borate buffer, pH 8.5. Wells were washed with 0.01M borate buffer, and the methylene blue extracted from the cells with 0.1N HCl/ethanol, and the absorbance measured in a microplate reader (Bio-Rad, Hercules, Calif., USA) at 655 nm. Polymyxin B (Sigma) at a final concentration of 5 μg/ml was used to inactivate endotoxin (Liu, S. et al., 1997, Clin. Biochem. 30:455-63).
Proliferation of endothelial cells (C-PAE cells) and WM-164 melanoma cells was assayed by methylene blue staining, as described above in Examples 25 and 34. The results are shown in FIGS. 33A and 33B, which are a pair of graphs showing the effect of increasing concentration (x-axis) of Tumstatin, Tum-1, Tum-2, Tum-3 and Tum-4 on the relative number (y-axis) of C-PAE cells (FIG. 33A) and WM-164 cells (FIG. 33B). […] Tum-4, however, did have anti-proliferative activity in this cell line. […] Only Tum-4 inhibited WM-164 melanoma cells.
For the proliferation assay, Canstatin, Can-1 and Can-2 soluble proteins (0.1-20.0 μg/ml) were added to the growth medium of proliferating C-PAE cells, which were stimulated with 10% FBS in DMEM, in addition to 5 ng/ml bFGF and 3 ng/ml VEGF. The results are shown in FIG. 40, which is a graph showing the effect of increasing concentrations of Canstatin (♦), Can-1 (▪) and Can-2 (▴) (x-axis) on the relative cell number (y-axis) of C-PAE cells. Each concentration of each protein was tested in quadruplicate. Bovine serum albumin (BSA) was used as a control treatment. Polymyxin B was used to control for endotoxin interference, and no differences were found between assays run with and without polymyxin B added to the medium. Cells were allowed to proliferate for 48 hours, and were then fixed, stained and the density read with a Bio-Rad plate reader (Bio-Rad, Hercules, Calif., USA). Canstatin and Can-1 both caused dose-dependent decreases in the percent cell number, and both reduced the number of cells by 80% at concentrations of 5 μg/ml and higher.
An endothelial cell proliferation assay was used to compare the activity of Tumstatin and some of the deletion mutants. Recombinant Tumstatin (28 kDa), Tumstatin-44-131 (12 kDa) and T3 peptide were used in a methylene blue proliferation assay in equimolar concentrations.

[4] = tested on: C-PAE cells; assay: Cell attachment assay; format: cell-based, bovine; conditions: for attachment of endothelial cells onto vitronectin-coated plates in the presence of peptide: 5 μg/ml
Description: as §1
To determine the attachment of C-PAE cells to plates coated with the Tumstatin deletion mutants, the cell attachment assay was performed as described above (see, e.g., Example 28). Rabbit antibody raised against Tum-4 was prepared as previously described (Kalluri et al., 1997, J. Clin. Invest. 99:2470-8). Goat anti-rabbit IgG antibody conjugated with horseradish peroxidase was purchased from Sigma Chemical Company (St. Louis, Mo., USA). […] Plates coated with Tum-1 (FIG. 36A) were also treated with anti-Tum-4 antibody (1:200 dilution) to block the previously reported (Shahan et al, 1999, Cancer Res. 59:4584-90) αvβ3 binding site, as well as the αvβ5 binding site.
as §2, §3
Tumstatin produced in 293 human embryonic kidney cells was used to coat tissue culture plates. […] PBS and BSA served as positive and negative controls, respectively.

[5] = tested on: C-PAE cells; assay: Cell cycle analysis (propidium iodide, flow cytometry); format: cell-based, bovine
Description: To further evaluate the mechanism of T3 peptide on endothelial cell proliferation, the effect of T3 peptide on cell cycle progression was analyzed. In the growth arrested and contact inhibited cells (0 hour), 4.1% of cells were in S phase. […] This was true even at a maximal dosage of 100 μg/ml. The effect of the T3 peptide was dose-dependent, however, with the percentage of cells in S phase at 21.4% at 10 μg/ml, and 20.5% at 25 μg/ml. The percentage of cells in G0/G1 phase was 88.3% at 0 hour, 53.4% for the bFGF control, and 57.6%, 57.6% and 71.0% for treatments with T1, T6 and T3 peptide, respectively. […] Apoptotic Activity: Peptides T2, T3, T4, T5 and T6 (10 μg/ml concentration) were tested for their effect of viability of C-PAE cells using the MTT assay, as described in Examples 32 and 36 above. The results are shown in FIG. 43D, which is a histogram showing cell viability as measured at OD595 (y-axis), and treatments with the synthetic peptides (x-axis). […] TNF-α (100 ng/ml) was used to serve as a positive control in inducing endothelial cell apoptosis.
The effect of Tumstatin-44-131 and Tum-5-125-C-A on the cell cycle were assayed similarly to Example 4 above. Briefly, C-PAE cells were growth arrested by contact inhibition for 48 hours. The cells, at 10^5 cells per well, were then harvested and plated into a 12-well plate coated with fibronectin in 5% FCS and either recombinant Tumstatin-44-131 or Tum-5-125-C-A. After 21 hours, the cells were harvested and fixed in 70% ice-cold ethanol. The fixed cells were rehydrated a room temperature for 30 minutes in PBS containing 2% FCS and 0.1% Tween-20, centrifuged and resuspended in 0.5 ml of the same buffer. RNase (5 μg/ml) digestion was done at 37° C. for one hour, followed by staining with propidium iodide (5 μg/ml). The cells were then counted using an EPICS XL-MCL flow cytometer (Beckman-Coulter Instruments, Fullerton, Calif., USA).

## laminin-1: mouse laminin-1, control plate coating [reference compound]
[1]
  inhibition of HUVEC attachment to coated plates by α5 antibody: 50%
  inhibition of HUVEC attachment to coated plates by α6 antibody: 89%

## ANMSRNVFFDCTSFPVCQKFLNDTRNY (Scrambled peptide SP1) [reference compound]
[2]
  % Tumor growth inhibition: 31.7%
[2]; T7 vehicle 5.626 ± 0.38, T8 vehicle 6.278 ± 1.483
  Final Tumor Weight (V/Vo) ± SEM: 4.284 ± 1.244

## DVCNFASRNDYSYWLSTPAL (T4 (amino acids 83-102 of SEQ ID NO10))
[3]
  inhibition of endothelial cell proliferation by synthetic peptides: no inhibitory activity

## NQRAHGQDLGTLGSCLQRFT (T2 (amino acids 53-72 of SEQ ID NO10))
[3]
  inhibition of endothelial cell proliferation by synthetic peptides: nor did it inhibit endothelial cell proliferation

## CDCRGDCFC (synthetic blocking peptide) [reference compound]
[4]
  attachment of endothelial cells onto vitronectin-coated plates in the presence of peptide: inhibited attachment

## RALEPYISRCTVCEGPAIA (T6 (amino acids 113-131 of SEQ ID NO10))
[4]; 0.1, 1.0, 10.0 μg/ml peptide
  binding to vitronectin-coated plates (2.5 μg/ml) in the presence of peptide: did not inhibit attachment
[5]; bFGF 24 hours (control 22.1%), T1 or T6, maximal dosage of 100 μg/ml
  percentage of cells in S phase: 21.2%
[5]; bFGF control 53.4%
  percentage of cells in G0/G1 phase: 57.6%

## CNGRC (synthetic blocking peptide) [reference compound]
[4]
  attachment of endothelial cells onto vitronectin-coated plates in the presence of peptide: did not show such inhibition

B1: vitronectin: control plate coating (protein)
chain: DQESCKGRCTEGFNVDKKCQCDELCSYYQSCCTDYTAECKPQVTRGDVFTMPEDEYTVYDDGEEKNNATVHEQVGGPSLTSDLQAQSKGNPEQTPVLKPEEEAPAPEVGASKPEGIDSRPETLHPGRPQPPAEEELCSGKPFDAFTDLKNGSLFAFRGQYCYELDEKAVRPGYPKLIRDVWGIEGPIDAAFTRINCQGKTYLFKGSQYWRFEDGVLDPDYPRNISDGFDGIPDNVDAALALPAHSYSGRERVYFFKGKQYWEYQFQHQPSQEECEGSSLSAVFEHFAMMQRDSWEDIFELLFWGRTSAGTRQPQFISRDWHGVPGQVDAAMAGRIYISGMAPRPSLAKKQRFRHRNRKGYRSQRGHSRGRNQNSRRPSRATWLSLFSSEESNLGANNYDDYRMDWLVPATCEPIQSVFFFSGDKYYRVNLRTRRVDTVDPPYPRSIAQYWLGCPAPGHL
[1]
  inhibition of HUVEC attachment to coated plates by αvβ3 antibody: 61%

B2: Tum-5: residues 54 to 132 of Tumstatin (SEQ ID NO:26) (protein)
chain: QRAHGQDLGTLGSCLQRFTTMPFLFCNVNDVCNFASRNDYSYWLSTPALMPMNMAPITGRALEPYISRCTVCEGPAIAI
modifications: Tum-5 (amino acids 54-132 of SEQ ID NO10)
[4]; label = plate coating
  attachment to coated plates in the presence of RGD peptide ([…]): not inhibited
[1]
  inhibition of HUVEC attachment to coated plates by αvβ3 antibody: significantly inhibited
